From PMC8206213, “An L-2-hydroxyglutarate biosensor based on specific transcriptional regulator LhgR” (Nature Communications, 2021)
Where “and” joins values, the source holds several entries; their conditions need not be identical. Identical values can stand only once.

Experiment: LHGFR expressed in E. coli BL21(DE3), response to exogenous L-2-HG (time course and dose-response)
Type: cell-based
Settings: Fig. 5a
Description: To characterize the sensitivity and specificity of LHGFR expressed in E. coli BL21(DE3), 90 μL cell suspensions following 8 h carbon starvation were mixed with 10 μL increasing concentrations of L-2-HG or other compounds, and then added into a black 96-well plate (total 100 μL/per well), the fluorescence intensities were determined using an EnSight microplate reader (PerkinElmer, USA) and the following instrument settings: excitation at 430 nm, emission at 485 nm (mTFP) and 528 nm (Venus), time intervals of 5 min, the temperature at 37 °C, and shake at 180 rpm.

For `O=C(O)CC[C@H](O)C(=O)O` [L-2-HG, L-2-Hydroxyglutarate], the Emission ratio (0.1 μM L-2-HG, 0 min) was 1.012 and 0.989 and 0.997, the Emission ratio (0.1 μM L-2-HG, 5 min) was 1.02 and 0.9981 and 1.004 and the Emission ratio (0.1 μM L-2-HG, 10 min) was 1.016 and 1.0025 and 1.009. The Emission ratio (0.1 μM L-2-HG, 15 min) was 1.023 and 1.007 and 1.026, the Emission ratio (0.1 μM L-2-HG, 20 min) was 1.034 and 1.009 and 1.038 and the Emission ratio (0.1 μM L-2-HG, 25 min) was 1.022 and 1.0081 and 1.026. The Emission ratio (0.1 μM L-2-HG, 30 min) was 1.026 and 1.01 and 1.02, the Emission ratio (0.1 μM L-2-HG, 35 min) was 1.021 and 1.007 and 1.025 and the Emission ratio (0.1 μM L-2-HG, 40 min) was 1.033 and 1.012 and 1.025. For the same compound, the Emission ratio (0.1 μM L-2-HG, 45 min) was 1.028 and 1.004 and 1.026, the Emission ratio (0.1 μM L-2-HG, 50 min) was 1.037 and 1.012 and 1.035 and the Emission ratio (0.1 μM L-2-HG, 55 min) was 1.031 and 1.006 and 1.033. The Emission ratio (0.1 μM L-2-HG, 60 min) was 1.022 (2×) and 1.012, the Emission ratio (0.1 μM L-2-HG, 65 min) was 1.024 and 1.014 and 1.029 and the Emission ratio (0.1 μM L-2-HG, 70 min) was 1.0212 and 1.016 and 1.02. The Emission ratio (0.1 μM L-2-HG, 75 min) was 1.025 (2×) and 1.033, the Emission ratio (0.1 μM L-2-HG, 80 min) was 1.031 and 1.009 and 1.021 and the Emission ratio (0.1 μM L-2-HG, 85 min) was 1.0115 and 1.016 and 1.023. For the same compound, the Emission ratio (0.1 μM L-2-HG, 90 min) was 1.021 (2×) and 1.032, the Emission ratio (1 μM L-2-HG, 0 min) was 0.9972 and 0.975 and 0.9871 and the Emission ratio (1 μM L-2-HG, 5 min) was 1.009 and 0.9962 and 0.9991. For the same compound, the Emission ratio (1 μM L-2-HG, 10 min) was 1.023 and 0.9982 and 1.005, the Emission ratio (1 μM L-2-HG, 15 min) was 1.0208 and 0.9996 and 1.009 and the Emission ratio (1 μM L-2-HG, 20 min) was 1.0328 and 1.012 and 1.019. For the same compound, the Emission ratio (1 μM L-2-HG, 25 min) was 1.021 and 1.008 and 1.022, the Emission ratio (1 μM L-2-HG, 30 min) was 1.0327 and 1.008 (2×) and the Emission ratio (1 μM L-2-HG, 35 min) was 1.03 and 0.9986 and 1.019. For the same compound, the Emission ratio (1 μM L-2-HG, 40 min) was 1.036 and 1.0055 and 1.012, the Emission ratio (1 μM L-2-HG, 45 min) was 1.034 and 0.9995 and 1.022 and the Emission ratio (1 μM L-2-HG, 50 min) was 1.045 and 1.003 and 1.021. The Emission ratio (1 μM L-2-HG, 55 min) was 1.024 and 1.003 and 1.034, the Emission ratio (1 μM L-2-HG, 60 min) was 1.027 and 1.003 and 1.025 and the Emission ratio (1 μM L-2-HG, 65 min) was 1.026 and 0.994 and 1.032. The Emission ratio (1 μM L-2-HG, 70 min) was 1.026 and 0.9971 and 1.03, the Emission ratio (1 μM L-2-HG, 75 min) was 1.025 and 1.005 and 1.037 and the Emission ratio (1 μM L-2-HG, 80 min) was 1.033 (2×) and 0.9987. The Emission ratio (1 μM L-2-HG, 85 min) was 1.013 and 1.0091 and 1.026, the Emission ratio (1 μM L-2-HG, 90 min) was 1.034 and 1.005 and 1.032 and the Emission ratio (10 μM L-2-HG, 0 min) was 0.9974 and 0.9749 and 0.9795. The Emission ratio (10 μM L-2-HG, 5 min) was 1.027 and 0.9941 and 0.9973, the Emission ratio (10 μM L-2-HG, 10 min) was 1.031 and 0.9958 and 1.001 and the Emission ratio (10 μM L-2-HG, 15 min) was 1.0289 and 1.0021 and 1.009. The Emission ratio (10 μM L-2-HG, 20 min) was 1.045 and 1 and 1.01, the Emission ratio (10 μM L-2-HG, 25 min) was 1.039 and 0.9977 and 1.015 and the Emission ratio (10 μM L-2-HG, 30 min) was 1.037 and 0.9978 and 1.007. For the same compound, the Emission ratio (10 μM L-2-HG, 35 min) was 1.04 and 1.003 and 1.015, the Emission ratio (10 μM L-2-HG, 40 min) was 1.03 and 1 and 1.011 and the Emission ratio (10 μM L-2-HG, 45 min) was 1.029 and 1.001 and 1.0118. The Emission ratio (10 μM L-2-HG, 50 min) was 1.038 and 1.001 and 1.016, the Emission ratio (10 μM L-2-HG, 55 min) was 1.018 and 0.9882 and 1.017 and the Emission ratio (10 μM L-2-HG, 60 min) was 1.019 (2×) and 0.997. For the same compound, the Emission ratio (10 μM L-2-HG, 65 min) was 1.0139 and 0.9961 and 1.023, the Emission ratio (10 μM L-2-HG, 70 min) was 1.0139 and 0.9946 and 1.028 and the Emission ratio (10 μM L-2-HG, 75 min) was 1.017 and 0.9951 and 1.034. The Emission ratio (10 μM L-2-HG, 80 min) was 1.022 and 0.9886 and 1.029, the Emission ratio (10 μM L-2-HG, 85 min) was 1.023 and 0.9843 and 1.034 and the Emission ratio (10 μM L-2-HG, 90 min) was 1.009 and 0.9801 and 1.033. For the same compound, the Emission ratio (20 μM L-2-HG, 0 min) was 0.9789 and 0.9659 and 0.9802, the Emission ratio (20 μM L-2-HG, 5 min) was 0.9958 and 0.9868 and 0.9915 and the Emission ratio (20 μM L-2-HG, 10 min) was 1.008 and 0.9945 and 0.999. For the same compound, the Emission ratio (20 μM L-2-HG, 15 min) was 1.027 and 1.004 and 1.005, the Emission ratio (20 μM L-2-HG, 20 min) was 1.024 and 1.0082 and 1 and the Emission ratio (20 μM L-2-HG, 25 min) was 1.026 and 1.013 and 1.0078. The Emission ratio (20 μM L-2-HG, 30 min) was 1.036 and 1.005 and 1.016, the Emission ratio (20 μM L-2-HG, 35 min) was 1.021 and 1.001 and 1.019 and the Emission ratio (20 μM L-2-HG, 40 min) was 1.043 and 1.002 and 1.018. For the same compound, the Emission ratio (20 μM L-2-HG, 45 min) was 1.041 and 1.009 and 1.022, the Emission ratio (20 μM L-2-HG, 50 min) was 1.04 and 1.006 and 1.0167 and the Emission ratio (20 μM L-2-HG, 55 min) was 1.015 and 1.004 and 1.027. For the same compound, the Emission ratio (20 μM L-2-HG, 60 min) was 1.0355 and 0.9994 and 1.024, the Emission ratio (20 μM L-2-HG, 65 min) was 1.024 and 1.003 and 1.019 and the Emission ratio (20 μM L-2-HG, 70 min) was 1.023 and 0.9958 and 1.025. For the same compound, the Emission ratio (20 μM L-2-HG, 75 min) was 1.0243 and 1.007 and 1.0344, the Emission ratio (20 μM L-2-HG, 80 min) was 1.023 and 0.9899 and 1.029 and the Emission ratio (20 μM L-2-HG, 85 min) was 1.012 and 1.001 and 1.028. For the same compound, the Emission ratio (20 μM L-2-HG, 90 min) was 1.022 and 0.9961 and 1.035, the Emission ratio (100 μM L-2-HG, 0 min) was 0.9864 and 0.9735 and 0.9711 and the Emission ratio (100 μM L-2-HG, 5 min) was 1.005 and 0.9924 and 0.9939. The Emission ratio (100 μM L-2-HG, 10 min) was 1.009 and 1.008 and 1.012, the Emission ratio (100 μM L-2-HG, 15 min) was 1.0245 and 1.016 and 1.019 and the Emission ratio (100 μM L-2-HG, 20 min) was 1.0318 and 1.022 and 1.0268. For the same compound, the Emission ratio (100 μM L-2-HG, 25 min) was 1.0276 and 1.029 and 1.024, the Emission ratio (100 μM L-2-HG, 30 min) was 1.034 and 1.025 and 1.028 and the Emission ratio (100 μM L-2-HG, 35 min) was 1.039 and 1.026 and 1.037. The Emission ratio (100 μM L-2-HG, 40 min) was 1.0304 and 1.029 and 1.028.
